Experimental data as given in patent publication US20240390369A1, “METHODS FOR DETERMINING RESPONSIVENESS TO TYK2 INHIBITORS” (Bristol-Myers Squibb Company, priority 2021, published 2024).
Several values for one entry are separate records, joined by “and”; a condition that tells them apart may be missing. Equal values may be shown once.

System: patients with psoriatic arthritis
Assay: Phase 2 trial in psoriatic arthritis: PASI75 response at week 16
Type: in vivo, human
Conditions: for Interaction Term for PASI75 response (ratio of odds ratios): week 16; for PASI75 response rate over time / Number of subjects, PASI75 Non-responder at week 16 / Number of subjects, PASI75 Responder at week 16 / Number of subjects, PASI75 Non-responder / Number of subjects, PASI75 Responder / Number of subjects: 6 mg QD; for PASI75 response rate over time: 12 mg QD, placebo, sixteen-week treatment period
Experimental: In a double-blind Phase 2 trial, 203 patients with psoriatic arthritis were randomized into three groups: deucravacitinib 6 mg once daily (N=70), deucravacitinib 12 mg once daily (N=67), or placebo (N=66). All subjects had active psoriatic arthritis according to the Classification Criteria for Psoriatic Arthritis (CASPAR); for active disease, these criteria required ≥3 tender joint count, ≥3 swollen joint count, and a C-reactive protein level above 3 mg/L. Other inclusion criteria included the following: presence of at least one plaque psoriasis lesion, and prior treatment failure with a non-biologic disease modifying anti-rheumatic drug, a non-steroidal anti-inflammatory drug, or a steroid. With respect to treatment history, approximately 70% of subjects had not received prior treatment with a biologic and were biologic naïve, while up to 30% of subjects had failed or had been intolerant to one TNF-inhibitor (TNF=Tumor necrosis factor, also known as TNFα). Randomization was stratified by prior TNF-inhibitor use (experienced/naïve) and body weight (<90 kg and ≥90 kg).
Clinical measures included the Psoriasis […] (PASI) score for skin psoriasis, American College of Rheumatology 20 (ACR20) response, Psoriatic Arthritis Disease Activity Score (PASDAS), Health Assessment Questionnaire-Disability Index (HAQ-DI), and Disease Activity Score 28 CRP (DAS28). To evaluate the predictive value of different protein measurements for the clinical response to deucravacitinib, baseline protein concentrations for responders and non-responders, as defined by ACR20 or PASI75 at week 16, were compared for each arm (placebo, 6 mg deucravacitinib once-daily, and 12 mg deucravacitinib once-daily).
In addition, a logistic regression model was fit, to determine whether baseline disease score (dichotomized by the median baseline score, into baseline score high and baseline score low groups) was associated with response status. The model generated an odds ratio for each dosed arm versus placebo, in baseline score high and baseline score low groups.
Boxplots for baseline protein level by response were generated with a horizontal line indicating the median protein level at baseline. For each treatment arm, a two-sample t-test was performed to test whether mean baseline serum protein level was different in responders versus non-responders. A Wilcoxon rank sum test (Mann-Whitney U test) was also performed to evaluate the difference in median serum protein level between responders and non-responders. Further, barplots of ACR20 and PASI75 response rate at week 16 for each treatment arm were generated for all subjects (protein level high and protein level low subjects, dichotomized according to median baseline level). Line plots of ACR20 and PASI75 response rate over time for each treatment arm were generated for protein level high and protein level low groups. Logistic regression models were also fit to evaluate associations between baseline protein levels and clinical outcome.
For certain analyses described herein, patients were dichotomized by median values (e.g., of the proteins listed above or other measures) into “high” and “low” groups, such that the high group had values above the median and the low group had values less than or equal to the median.
In addition, logistic regression models were fit for response measures ACR20 and PASI75, to generate the odds ratio of each of the deucravacitinib treatment arms versus placebo, in BD2-high and BD2-low groups. The following logistic regression models were used: • For ACR20 response status: ACR20 (Y/N)=treatment arm+BD2 group+treatment arm*BD2 group+TNF-inhibitor use+baseline weight (continuous). • For PASI75 response status: PASI75 (Y/N)=treatment arm+BD2 group+treatment arm*BD2 group+TNF-inhibitor use+baseline weight (continuous). […]

[1] = Above median baseline CRP level
[2] = Below median baseline CRP level

`[2H]C([2H])([2H])NC(=O)c1nnc(NC(=O)C2CC2)cc1Nc1cccc(-c2ncn(C)n2)c1OC` [deucravacitinib, 6-(cyclopropanecarboxamido)-4-((2-methoxy-3-(1-methyl-1H-1,2,4-triazol-3-yl)phenyl)amino)-N-(methyl-d3)pyridazine-3-carboxamide] was tested, and the “Interaction Term for PASI75 response (ratio of odds ratios)” value (shortened to “Interaction Term … (ratio of odds ratios)”) (6 mg QD vs placebo: BD2 high versus BD2 low) was 11.628, the “Interaction Term: treatment arm*CRP group, PASI75” value (6 mg QD vs placebo: CRP high versus CRP low) was 1.67 and the “Interaction Term: treatment arm*CRP group, PASI75” value (6 mg QD vs placebo: CRP-high versus CRP-low, adjusted for baseline PASI score) was 1.67. For the same compound, the “Interaction Term: treatment arm*IL-17A group, PASI75” value (6 mg QD vs placebo: IL-17A high versus IL-17A low, adjusted for baseline PASI score) was 22.889, the “Interaction Term … (ratio of odds ratios)” value (6 mg QD vs placebo: IL-17A high versus IL-17A low) was 22.851 and the “Interaction Term … (ratio of odds ratios)” value (6 mg QD vs placebo: baseline PASI high versus PASI low) was 5.51 and 5.514. For the same compound, the “PASI75 response rate over time” value (BD2-high and BD2-low groups (FIG. 9)) was “dose-dependent PASI75 response rate over time was observed in the BD2-high group but not in the BD2-low group”, the “PASI75 response rate over time” value (CRP-high and CRP-low groups (FIG. 40)) was “higher response rates than the placebo arm” and the “PASI75 response rate over time” value (IL-17A-high and IL-17A-low groups (FIG. 23)) was “dose-dependent PASI75 response over time was observed in IL-17A-high but not in IL-17A-low PsA patients”. The “PASI75 response rate over time” value (IL-19-high and IL-19-low groups (FIG. 16)) was “dose-dependent PASI75 response over time was observed in IL-19-high but not in IL-19-low PsA patients”, the “Number of subjects, PASI75 Non-responder at week 16” value [1] was 17 and the “Number of subjects, PASI75 Responder at week 16” value [1] was 16. The “Number of subjects, PASI75 Non-responder at week 16” value [2] was 17, the “Number of subjects, PASI75 Responder at week 16” value [2] was 9 and the “Number of subjects, PASI75 Non-responder” value (CRP-high-PASI-high) was 4. The “Number of subjects, PASI75 Responder” value (CRP-high-PASI-high) was 11, the “Number of subjects, PASI75 Non-responder” value (CRP-high-PASI-low) was 13 and the “Number of subjects, PASI75 Responder” value (CRP-high-PASI-low) was 5. The “Number of subjects, PASI75 Non-responder” value (CRP-low-PASI-high) was 7, the “Number of subjects, PASI75 Responder” value (CRP-low-PASI-high) was 5 and the “Number of subjects, PASI75 Non-responder” value (CRP-low-PASI-low) was 10. For the same compound, the “Number of subjects, PASI75 Responder” value (CRP-low-PASI-low) was 4, the Number of subjects (PASI75 non-responder at week 16, above baseline PASI median 6.6) was 11 and the Number of subjects (PASI75 non-responder at week 16, above median baseline BD2 level) was 17. It also gave a Number of subjects (PASI75 non-responder at week 16, above median baseline IL-17A level) of 14, a Number of subjects (PASI75 non-responder at week 16, above median baseline IL-19 level) of 18 and a Number of subjects (PASI75 non-responder at week 16, below baseline PASI median 6.6) of 23. It also gave a Number of subjects (PASI75 non-responder at week 16, below median baseline BD2 level) of 16, a Number of subjects (PASI75 non-responder at week 16, below median baseline IL-17A level) of 20 and a Number of subjects (PASI75 non-responder at week 16, below median baseline IL-19 level) of 16. For the same compound, the Number of subjects (PASI75 non-responder, BD2-high-PASI-high) was 8, the Number of subjects (PASI75 non-responder, BD2-high-PASI-low) was 12 and the Number of subjects (PASI75 non-responder, BD2-low-PASI-high) was 3. It also gave a Number of subjects (PASI75 non-responder, BD2-low-PASI-low) of 11, a Number of subjects (PASI75 non-responder, IL-17A-high-PASI-high) of 8 and a Number of subjects (PASI75 non-responder, IL-17A-high-PASI-low) of 6. The Number of subjects (PASI75 non-responder, IL-17A-low-PASI-high) was 3, the Number of subjects (PASI75 non-responder, IL-17A-low-PASI-low) was 17 and the Number of subjects (PASI75 non-responder, IL-19-high-PASI-high) was 9. The Number of subjects (PASI75 non-responder, IL-19-high-PASI-low) was 9, the Number of subjects (PASI75 non-responder, IL-19-low-PASI-high) was 2 and the Number of subjects (PASI75 non-responder, IL-19-low-PASI-low) was 14. It also gave a Number of subjects (PASI75 responder at week 16, above baseline PASI median 6.6) of 16, a Number of subjects (PASI75 responder at week 16, above median baseline BD2 level) of 22 and a Number of subjects (PASI75 responder at week 16, above median baseline IL-17A level) of 19. The Number of subjects (PASI75 responder at week 16, above median baseline IL-19 level) was 19, the Number of subjects (PASI75 responder at week 16, below baseline PASI median 6.6) was 9 and the Number of subjects (PASI75 responder at week 16, below median baseline BD2 level) was 15. It also gave a Number of subjects (PASI75 responder at week 16, below median baseline IL-17A level) of 6, a Number of subjects (PASI75 responder at week 16, below median baseline IL-19 level) of 6 and a Number of subjects (PASI75 responder, BD2-high-PASI-high) of 14.
